“And” between values parts separate entries of the source, which are not always exact repeats. Equal values may be shown once.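 Growth conditions: 96-well plates. Treatment: test compound, 48 hours, 5 concentrations. Analysis: linear interpolation between bracketing concentrations; unreached endpoints set to highest concentration. GI50 = concentration required for 50% inhibition of growth. TGI: total growth inhibition.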 Where a SMILES comes first, the peptide text is derived from it. [ ]: non-standard residue; d: D form. The star is where a group is joined. ξ: configuration not given here. X3 = COc1ccc(C(N*)c2ccc(OC)cc2)cc1; NMeF = CN[C@@H](Cc1ccccc1)C(=O)O; NMeD = CN[C@@H](CC(=O)O)C(=O)O; NMeV = CN[C@H](C(=O)O)C(C)C; ξNMeV = CNC(C(=O)O)C(C)C; Boc = CC(C)(C)OC(=O)*; ξNMeA = CNC(C)C(=O)O; ξV = CC(C)C(N)C(=O)O
Tests used:
Assay in all cases: NCI-60 cell line screen, 48 h
[1] = test system: COLO 205 colon
[2] = test system: NCI-H226 lung
[3] = test system: SNB-19 CNS
[4] = test system: 786-0 renal
[5] = test system: MDA-MB-435
[6] = test system: MALME-3M melanoma
[7] = test system: UACC-62 melanoma
[8] = test system: SF-539 CNS
[9] = test system: HOP-62 NSCLC
[10] = test system: CCRF-CEM leukemia

Row | Compound | GI50 [1] | TGI [1] | GI50 [2] | TGI [2] | GI50 [3] | TGI [3] | GI50 [4] | TGI [4] | TGI [5] | GI50 [6] | TGI [6] | GI50 [7] | TGI [7] | GI50 [8] | TGI [8] | GI50 [9] | TGI [9] | GI50 [10] | TGI [10] | GI50 [5]
1 | COc1ccc(C(NC(=O)C[C@@H](C(=O)N(C)C(C)C(=O)O)N(C)C(=O)[C@@H]2CCCN2C(=O)[C@H](C(C)C)N(C)C(=O)C(C(C)C)N(C)C(=O)[C@H](Cc2ccccc2)N(C)C(=O)C(NC(=O)OC(C)(C)C)C(C)C)c2ccc(OC)cc2)cc1 (some centres undefined) (Boc-[ξV][NMeF][ξNMeV][NMeV]P[NMeD](X3)[ξNMeA]-OH) | 17.2 µM | 32.1 µM and 30.9 µM | 18 µM | 19.2 µM and 32.3 µM | 17.5 µM | 37.5 µM and 33 µM | 17.9 µM | 33.4 µM and 31.7 µM | 20 µM | 20.5 µM | 37.5 µM and 37.9 µM | 0.803 µM | 12.5 µM and 20.9 µM | 22.5 µM | 17.9 µM and 39.8 µM | 18.5 µM | 31.8 µM and 35.5 µM | 19.8 µM | 17.5 µM and 41.6 µM | 
2 | Cc1cc(I)cc(CN(CCCN(C)C)C(C)C)c1O | 14.7 µM | 27.8 µM | 25.7 µM | > 100 µM | 18.4 µM | 42.5 µM | 15.7 µM | 30.5 µM | 35.9 µM | 21.6 µM | 40.8 µM | 15.2 µM | 33.7 µM | 15.3 µM | 29.1 µM | 16.1 µM | 30.6 µM | 0.116 µM | 1.03 µM | 17.3 µM
3 | CC1=C2C(=C[C@@](C)(CO)[C@@H]2O)C(=O)[C@](C)(O)C12CC2 |  | 0.0218 µM |  | 0.0507 µM and 0.0611 µM |  | 0.0921 µM |  | 0.0143 µM and 0.0638 µM | 0.0312 µM |  | 0.0243 µM |  | 0.0265 µM |  | 0.0181 µM and 0.0175 µM |  | 0.0263 µM and 0.0432 µM | 0.342 µM |  | 
4 | CCN(Cc1ccc(F)cc1)c1cc(Cl)c(CO)c(Cl)c1 | 17.3 µM | 31.4 µM | 3.69 µM | 17.1 µM | 12.5 µM | 26 µM | 16 µM | 32.5 µM | 37 µM | 17.8 µM | 36.1 µM | 4.98 µM | 17.9 µM | 16.2 µM | 30.4 µM | 14 µM | 27.2 µM | 16.8 µM | 47.7 µM | 17.9 µM
5 | O=C(O)c1nc2nc(Cl)c(Cl)nc2[nH]1 |  | > 100 µM |  | > 100 µM |  | > 100 µM |  | > 100 µM | > 100 µM |  | > 100 µM |  | > 100 µM |  | > 100 µM |  | > 100 µM |  | > 100 µM | 
6 | COc1cccc(C2SC(N)=Nc3c2c(C)nn3C(=O)c2ccccc2O)c1 (centres undefined) |  | > 10 µM |  | > 7.78 µM |  | > 10 µM |  | > 10 µM | > 10 µM |  | > 10 µM |  | > 10 µM |  | > 2.64 µM |  | > 10 µM |  | > 10 µM | 
7 | CCN(C(=O)N1CCN(c2cc3c(cc2F)c(=O)c(C(=O)O)cn3C2CC2)CC1)c1nc(-c2ccc(Cl)cc2)cs1 | 2 µM | 6.17 µM | 1.79 µM | 5.2 µM | 1.09 µM | 49.5 µM | 2.41 µM | 15.4 µM | 7.03 µM | 1.38 µM | 5.95 µM | 1.13 µM | 3.55 µM | 1.02 µM | 3.74 µM | 1.6 µM | 17.7 µM | 2.45 µM | > 100 µM | 1.21 µM
8 | COc1cccc(-c2nc(-c3ccc(NC(=O)OC(C)C)cc3)[nH]c2-c2ccnc(Br)c2)c1 | 3.26 µM | > 100 µM | 2.46 µM | 87.5 µM | 3.19 µM | > 100 µM | 0.974 µM | > 100 µM | > 100 µM | 2.23 µM | 7 µM | 1.98 µM | 4.87 µM | 1.53 µM | 5.83 µM | 2.92 µM | > 100 µM | 2.22 µM | > 100 µM | 3.11 µM
9 | COc1cc(-c2ccc3cc(OC)c(OC)c(OC)c3c2)cc(OC)c1OC | > 100 µM | > 100 µM | > 100 µM | > 100 µM | 75.1 µM | > 100 µM | 20.9 µM | > 100 µM | > 100 µM | 8.75 µM | > 100 µM | 29.6 µM | > 100 µM | 23.6 µM | > 100 µM | 16.1 µM | 75.4 µM | > 100 µM | > 100 µM | 2.8 µM
10 | COc1cccc(C(=O)NC(c2ccc(C)cc2)c2cc(Cl)c3cccnc3c2O)c1 (centres undefined) | 0.387 µM | 1.86 µM | 0.568 µM | 2.57 µM | 0.371 µM | 29 µM | 0.725 µM | 5.5 µM | 23.7 µM | 1.42 µM | 15.6 µM | 0.357 µM | 3.13 µM | 0.445 µM | 3.27 µM | 0.496 µM | 9.58 µM | 0.366 µM | 11.7 µM | 0.56 µM
11 | CC(=O)CC(OC(C)=O)C1=CCC2C(CC1C)OC(=O)C2C (centres undefined) |  | > 100 µM |  | > 100 µM |  | > 100 µM |  | > 100 µM | > 100 µM |  | > 100 µM |  | > 100 µM |  | > 100 µM |  | > 100 µM |  | > 100 µM | 
12 | CC1(C)OC1COc1c2occc2cc2ccc(=O)oc12 (centres undefined) |  | > 100 µM |  | > 100 µM |  | > 100 µM |  | > 100 µM | > 100 µM |  | > 100 µM |  | > 100 µM |  | > 100 µM |  | > 100 µM |  | > 100 µM | 
13 | Cc1nnc(NC(=O)c2nc(S(=O)(=O)Cc3ccc(F)cc3)ncc2Cl)s1 | 1.82 µM | 3.68 µM | 6.27 µM | 25.7 µM | 15.6 µM | 35.1 µM | 4.32 µM | 15.5 µM | 3.43 µM | 1.8 µM | 3.48 µM | 1.61 µM | 3.01 µM | 4.27 µM | 15.4 µM | 19.8 µM | 39.3 µM | 1.52 µM | 3.65 µM | 1.82 µM
14 | O=C(CCCSc1nc(-c2ccccc2)cc(-c2ccccc2)n1)NO | 1.86 µM | 5.1 µM | 1.19 µM | 9.28 µM | 2.67 µM | 13.8 µM | 0.585 µM | 4.34 µM | 10.1 µM | 1.95 µM | 9.71 µM | 1.32 µM | 3.21 µM | 1.92 µM | 7.09 µM | 0.671 µM | 4.4 µM | 0.368 µM | 10.6 µM | 2.05 µM
15 | CCOC(=S)SCC(=O)O |  | > 100 µM |  | > 100 µM |  | > 100 µM |  | > 100 µM | > 100 µM |  | > 100 µM |  | > 100 µM |  | > 100 µM |  | > 100 µM |  | 26.6 µM | 
16 | c1ccc(Sc2ncnc3ccccc23)cc1 | 15 µM | 28.3 µM | 13.4 µM | 56.2 µM | 18.6 µM | 51.5 µM | 14.9 µM | 34.5 µM | 32.5 µM | 10.8 µM | 29.8 µM | 9.06 µM | 23.5 µM | 15.9 µM | 34.2 µM | 16.3 µM | 40.5 µM | 2.9 µM | 61.4 µM | 8.19 µM
17 | CC1(COc2ccc3c(c2)ncn3-c2ccc3cccc(N4CCC(N)CC4)c3n2)COC1 | 1.09 µM and 1.02 µM | 2.44 µM and 2.86 µM | 3.18 µM and 2.54 µM | 9.32 µM and > 10 µM | 4.35 µM and 3.36 µM | 13.2 µM and > 10 µM | 1.8 µM and 1.75 µM | 4.63 µM and 3.85 µM | 10.5 µM and > 10 µM | 3.23 µM and 1.86 µM | 6.46 µM and 3.74 µM | 16.7 µM and > 10 µM | 34.4 µM and > 10 µM | 1.26 µM and 1.01 µM | 2.65 µM and 2.59 µM | 1.74 µM and 1.49 µM | 6.59 µM and 9.02 µM | 2.02 µM and 1.39 µM | 6.44 µM and 5.86 µM | 3.06 µM and 3.25 µM
18 | CCn1c(-c2nonc2N)nc2c(C#CC(C)(C)O)nc(OC[C@@H](N)c3ccccc3)cc21 | 4.68 µM | 8.31 µM | 11.9 µM | 16.2 µM | 6 µM | 11.6 µM | 2.98 µM | 6.35 µM | 9.81 µM | 5.46 µM | 9.77 µM | 4.89 µM | 8.79 µM | 3.73 µM | 7.71 µM | 6.09 µM | 10.2 µM | 4.08 µM | 23.3 µM | 5.22 µM
19 | N#Cc1c[nH]n2c(N=Nc3ccc(Cl)cc3)c(O)nc12 | 29 µM | > 100 µM | 18.5 µM | 43.3 µM | 33.8 µM | > 100 µM | 51.6 µM | > 100 µM | > 100 µM | 41.6 µM | > 100 µM | 17.2 µM | 57 µM | 26.9 µM | 54.1 µM | 62.7 µM | > 100 µM | 31.1 µM | > 100 µM | 44.3 µM
20 | N#CC(C#N)=C/C=C(\Sc1nc2ccccc2s1)c1ccc(Cl)cc1 | 3.26 µM | > 27.7 µM | 7.73 µM | 22.8 µM | 8.12 µM | > 41.2 µM | 3.43 µM | 12 µM | 11.1 µM | 5.29 µM | 16.5 µM | 8.89 µM | 29.4 µM | 2.83 µM | 9.89 µM | 14 µM | 30.5 µM | 0.577 µM | > 100 µM | 2.86 µM
21 | O=C(/C(=C/c1ccc([N+](=O)[O-])cc1)SCc1ccccc1)c1ccc(Cl)cc1 | 2.14 µM | 5.11 µM | 4.53 µM | 34.1 µM | 3.59 µM | 15.6 µM | 1.77 µM | 3.41 µM | 11.4 µM | 3.12 µM | 11.7 µM | 2.56 µM | 9.12 µM | 2.64 µM | 8.2 µM | 4.52 µM | 17.7 µM | 2.12 µM | > 100 µM | 3.22 µM
22 | O=C1CCCCN1c1ccccc1C#C/C=C\C#Cc1ccccc1C(F)(F)F | 11.5 µM | > 50 µM | 1.28 µM | 3.7 µM | > 50 µM | > 50 µM | 1.61 µM | 7.26 µM | 1.8 µM | 2.29 µM | 39.2 µM | 1.44 µM | 4.86 µM | 1.44 µM | 4.43 µM | 0.899 µM | 2.94 µM | 1.56 µM | 3.96 µM | 0.603 µM

Reference: PubChem BioAssay (NCI)
